These results are taken from ChEMBL document CHEMBL5543071, “Benzopyran hydrazones with dual PPARα/γ or PPARα/δ agonism and an anti-inflammatory effect on human THP-1 macrophages” (Eur J Med Chem, 2024).

Data set [1] concerns THP-1. In words: Cytotoxicity against human THP-1 cells assessed as reduction in cell viability at 10 to 30 uM incubated for 72 hrs. Type of data set: toxicity, cell-based. As to conditions: thp-1, 72 h, dose 10-30 µM.
The test system of data set [2] is THP-1. In words: Cytotoxicity against human THP-1 cells assessed as reduction in cell viability at 100 uM incubated for 72 hrs. Type of data set: toxicity, cell-based. Conditions: thp-1, 72 h.
Data set [3] deals with T1, Peroxisome proliferator-activated receptor gamma (Homo sapiens, UniProt P37231).
T1 sequence (P37231 whole entry): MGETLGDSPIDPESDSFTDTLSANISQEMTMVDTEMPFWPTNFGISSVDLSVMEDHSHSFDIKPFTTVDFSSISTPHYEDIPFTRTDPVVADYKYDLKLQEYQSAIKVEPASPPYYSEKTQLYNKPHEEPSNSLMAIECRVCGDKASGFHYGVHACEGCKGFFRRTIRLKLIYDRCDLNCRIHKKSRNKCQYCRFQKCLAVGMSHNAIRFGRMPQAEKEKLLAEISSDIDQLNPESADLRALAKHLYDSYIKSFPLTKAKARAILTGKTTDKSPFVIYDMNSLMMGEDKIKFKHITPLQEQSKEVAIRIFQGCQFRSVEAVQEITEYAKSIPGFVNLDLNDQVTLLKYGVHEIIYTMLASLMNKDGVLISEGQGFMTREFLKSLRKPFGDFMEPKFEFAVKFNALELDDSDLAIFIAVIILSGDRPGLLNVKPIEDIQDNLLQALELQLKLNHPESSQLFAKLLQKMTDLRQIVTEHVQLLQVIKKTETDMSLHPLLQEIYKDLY
Type of data set: cell-based, COS7.
Description: Agonist activity at human PPARgamma transfected in african green monkey COS7 cells assessed transcriptional activation incubated for 24 hrs by luciferase assay

Each structure is given as a SMILES string.

As for `C/C(=C\CCC1(C)CCc2cc(OCc3ccc(F)cc3)ccc2O1)CC/C=N/Nc1ncc(Cl)cc1C(F)(F)F` (stereo not given), in the data set on THP-1 [1], the Activity entry is on record as “Non-Toxic”.
Consider `CC1(CC/C=N/Nc2nc3ccccc3s2)CCc2cc(OCc3ccc(F)cc3)ccc2O1` (stereo not given), for which the Activity result in the data set with THP-1 [1] is on record as “Non-Toxic”.
A word on the EC50: it is the concentration giving half of the maximal effect. A high value points to a less potent agent. Turning to `CC1(CC/C=N/Nc2ncc(Cl)cc2C(F)(F)F)CCc2cc(OCc3ccc(F)cc3)ccc2O1` (stereo not given), the values for the Activity result in the data set with THP-1 [1] and in the data set on THP-1 [2] were “Non-Toxic” and “Toxic”, respectively. In data set [3], this compound registered an EC50 of 5.54 µM.
